From PubChem BioAssay (NCI)
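Where inhibition never reached the appropriate level, the endpoint shown equals the highest concentration tested. Otherwise, values were interpolated linearly from a five-concentration, 48-hour dose response in 96-well plates. TGI is the concentration that stops growth completely.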

How the values were obtained:
Assay in all cases: DTP human tumour cell line panel, 48 h
[1] = test system: SK-OV-3 ovarian
[2] = test system: U251 CNS
[3] = test system: A549 NSCLC
[4] = test system: ACHN renal
[5] = test system: NCI-H226 lung
[6] = test system: TK-10 renal
[7] = test system: SR leukemia
[8] = test system: OVCAR-4 ovarian
[9] = test system: UACC-257 melanoma
[10] = test system: BT-549 breast
[11] = test system: NCI-H460 lung
[12] = test system: SF-295 CNS
[13] = test system: HCT-15 colon
[14] = test system: OVCAR-5 ovarian
[15] = test system: EKVX NSCLC
[16] = test system: M14 melanoma
[17] = test system: A498 renal
[18] = test system: DU-145 prostate
[19] = test system: HOP-92 NSCLC
[20] = test system: SW-620 colon
[21] = test system: SF-268 CNS
[22] = test system: CCRF-CEM leukemia
[23] = test system: COLO 205 colon
[24] = test system: SNB-19 CNS
[25] = test system: T-47D breast
[26] = test system: RPMI-8226 leukemia
[27] = test system: SK-MEL-5 melanoma
[28] = test system: NCI/ADR-RES ovarian
[29] = test system: UACC-62 melanoma
[30] = test system: MCF7 breast
[31] = test system: MDA-MB-231 breast
[32] = test system: PC-3 prostate
[33] = test system: MDA-MB-435
[34] = test system: RXF 393 renal
[35] = test system: SN12C renal
[36] = test system: UO-31 renal
[37] = test system: NCI-H23 lung
[38] = test system: SNB-75 CNS
[39] = test system: MALME-3M melanoma
[40] = test system: SF-539 CNS
[41] = test system: MDA-N
[42] = test system: LOX IMVI melanoma
[43] = test system: IGROV1 ovarian
[44] = test system: OVCAR-8 ovarian
[45] = test system: SK-MEL-28 melanoma
[46] = test system: KM12 colon
[47] = test system: HS 578T breast
[48] = test system: HCC-2998 colon
[49] = test system: OVCAR-3 ovarian
[50] = test system: 786-0 renal
[51] = test system: HT29 colon
[52] = test system: HCT-116 colon
[53] = test system: NCI-H522 lung
[54] = test system: K-562 leukemia
[55] = test system: HOP-62 NSCLC
[56] = test system: CAKI-1 renal
[57] = test system: HL-60(TB) leukemia
[58] = test system: MOLT-4 leukemia
[59] = test system: SK-MEL-2 melanoma
[60] = test system: KM20L2 colon
[61] = test system: M19-MEL melanoma
[62] = test system: LXFL 529 NSCLC
[63] = test system: DLD-1 colon
[64] = test system: DMS 114 small cell lung
[65] = test system: XF 498 CNS
[66] = test system: DMS 273 small cell lung

Molecule `O=C(O)c1ccc(C(=O)c2ccccc2C(=O)O)cc1C(=O)O` has a TGI [1] of over 100 µM, a TGI [2] of over 100 µM and a TGI [3] of over 100 µM. For the same molecule, the TGI [4] was over 100 µM, the TGI [5] was over 100 µM and the TGI [6] was over 100 µM. It also gave a TGI [7] of over 100 µM, a TGI [8] of over 100 µM and a TGI [9] of over 100 µM. It also gave a TGI [10] of over 100 µM, a TGI [11] of over 100 µM and a TGI [12] of over 100 µM. For the same molecule, the TGI [13] was over 100 µM, the TGI [14] was over 100 µM and the TGI [15] was over 100 µM. For the same molecule, the TGI [16] was over 100 µM, the TGI [17] was over 100 µM and the TGI [18] was over 100 µM. The TGI [19] was over 100 µM, the TGI [20] was over 100 µM and the TGI [21] was over 100 µM. The TGI [22] was over 100 µM, the TGI [23] was over 100 µM and the TGI [24] was over 100 µM. It also gave a TGI [25] of over 100 µM, a TGI [26] of over 100 µM and a TGI [27] of over 100 µM. It also gave a TGI [28] of over 100 µM, a TGI [29] of over 100 µM and a TGI [30] of over 100 µM. For the same molecule, the TGI [31] was over 100 µM, the TGI [32] was over 100 µM and the TGI [33] was over 100 µM. The TGI [34] was over 100 µM, the TGI [35] was over 100 µM and the TGI [36] was over 100 µM. It also gave a TGI [37] of over 100 µM, a TGI [38] of over 100 µM and a TGI [39] of over 100 µM. For the same molecule, the TGI [40] was over 100 µM, the TGI [41] was over 100 µM and the TGI [42] was over 100 µM. The TGI [43] was over 100 µM, the TGI [44] was over 100 µM and the TGI [45] was over 100 µM. It also gave a TGI [46] of over 100 µM, a TGI [47] of over 100 µM and a TGI [48] of over 100 µM. For the same molecule, the TGI [49] was over 100 µM, the TGI [50] was over 100 µM and the TGI [51] was over 100 µM. For the same molecule, the TGI [52] was over 100 µM, the TGI [53] was over 100 µM and the TGI [54] was over 100 µM. The TGI [55] was over 100 µM, the TGI [56] was over 100 µM and the TGI [57] was over 100 µM. The TGI [58] was over 100 µM and the TGI [59] was over 100 µM.
`O=C(c1ccccc1)c1c(CC(O)c2ccccn2)n(C(=O)c2ccccc2)c2ccccc12` (stereo not drawn) showed a TGI [2] of 58 µM, a TGI [3] of over 100 µM and a TGI [60] of 33.5 µM. It also gave a TGI [4] of 96.6 µM, a TGI [61] of 40.1 µM and a TGI [62] of over 100 µM. It also gave a TGI [5] of 54 µM, a TGI [6] of over 100 µM and a TGI [7] of 50 µM. For the same molecule, the TGI [8] was over 100 µM, the TGI [9] was 43.6 µM and the TGI [11] was 57 µM. For the same molecule, the TGI [12] was 84.8 µM, the TGI [13] was 88.1 µM and the TGI [14] was 52.7 µM. The TGI [16] was 38.1 µM, the TGI [19] was 57.5 µM and the TGI [20] was over 100 µM. It also gave a TGI [63] of over 100 µM, a TGI [21] of over 100 µM and a TGI [22] of 80.5 µM. The TGI [23] was 50.5 µM, the TGI [24] was over 100 µM and the TGI [26] was 56 µM. For the same molecule, the TGI [27] was 27.3 µM, the TGI [64] was 71.9 µM and the TGI [29] was 32.5 µM. The TGI [65] was 46 µM, the TGI [36] was 67.5 µM and the TGI [66] was 58.3 µM. The TGI [37] was 56.3 µM, the TGI [38] was 43.3 µM and the TGI [39] was 46 µM. The TGI [40] was 31.5 µM, the TGI [43] was over 100 µM and the TGI [44] was 95.8 µM. The TGI [45] was 39.6 µM, the TGI [46] was over 100 µM and the TGI [48] was 67.7 µM. The TGI [49] was 68.4 µM, the TGI [50] was over 100 µM and the TGI [51] was 30.1 µM. For the same molecule, the TGI [52] was 27.8 µM, the TGI [53] was 47.2 µM and the TGI [54] was over 100 µM. It also gave a TGI [55] of 38.2 µM, a TGI [56] of over 100 µM and a TGI [58] of 63.6 µM. The TGI [59] was 30.9 µM.
